Assay results from US20160243277A1, “FAST CURING POROUS MATERIALS AND CONTROL THEREOF” (priority 2013, published 2016).

Experiments:
[1] = test system: human mesenchymal stem cells (hMSCs); assay: Macromer extract dilution cytocompatibility test (modified ISO 10993-5, Live/Dead); conditions: undiluted (1X) extract from 10 minute media incubation with macromer, 24 hour culture
Protocol: Bone marrow-derived human mesenchymal stem cells (hMSCs) were obtained as Passage 1 in a cryovial from the Center for the Preparation and Distribution of Adult Stem Cells. Cells were cultured in growth media containing 16.5% fetal bovine serum (Atlanta Biologicals), 1% L-glutamine (Life Technologies) and Minimum Essential Media α (MEM α, Life Technologies) to about 80% confluency and utilized at Passages 5 and 6. Cells were trypsinized with 0.25% Trypsin-EDTA (Life Technologies) and seeded at a density of about 40,000 cells/cm^2 in a 96 well plate and allowed to adhere for about 24 hours. On the following day, about 100 μl of each macromer was incubated in about 300 μl growth media supplemented with 1 vol. % penicillin-streptomycin (Life Technologies) in a 48 well plate to mimic the ratio of organic to aqueous phase in the HIPE. After about 10 minute incubation at about 37° C., 5% CO2, the supernatant above the macromers was aspirated and diluted to about 10× and about 100× solutions. […] Extracted and diluted media (1, 10, and 100×) was then added to cells and cultured for an additional time, generally about 24 hours. Viability was assessed utilizing the Live/Dead® assay kit (registration with Molecular Probes Corporation, Eugene, Oreg.). The analysis used a plate reader (Tecan Infinite M200Pro) with excitation/emission wavelengths of 485/528 and 528/620 for calcein-AM and ethidium homodimer-1 dyes, respectively. Viability was normalized to cells on tissue culture polystyrene.

[2] = previously described PFDMA macromer; cited from earlier work

Compound | hMSC viability after exposure to extract media [1] | Macromer viscosity [2]
C=C(C)C(=O)OCCCCOC(=O)C(=C)C [BDMA, butane diol dimethacrylate] | less | –
C=C(C)C(=O)OCCOC(=O)C(=C)C [EGDMA, ethylene glycol dimethacrylate] | less | –
propylene fumarate dimethacrylate [PFDMA] | > 80% | about 125 cP
